# Biological target: T1, human Trk A kinase (Homo sapiens, UniProt P04629)
# T1 construct: HIS tag; made in house; host or cells: SF9 insect cells
# Test: Trk A Assay (Alphascreen kinase assay)
# Assay type: biochemical
# Conditions: intracellular domain of HIS-tagged human Trk A, 70 μM ATP, PolyEY-biotin substrate, 20 minutes room temperature; read-out: IC50 (μM), Trk inhibitory activity
# Experimental: Trk A kinase activity was measured for its ability to phosphorylate synthetic tyrosine residues within a generic polypeptide substrate using an Amplified Luminescent Proximity Assay (Alphascreen) technology (PerkinElmer, 549 Albany Street, Boston, Mass.).
# To measure Trk A kinase activity, the intracellular domain of a HIS-tagged human Trk A kinase (amino acids 442-796 of Trk A, Swiss-Prot Primary Accession Number P04629) was expressed in SF9 cells and purified using standard nickel column chromatography. After incubation of the kinase with a biotinylated substrate and adenosine triphosphate (ATP) for 20 minutes at room temperature, the kinase reaction was stopped by the addition of 30 mM ethylenediaminetetraacetic acid (EDTA). The reaction was performed in 384 well microtitre plates and the reaction products were detected with the addition of strepavidin coated Donor Beads and phosphotyrosine-specific antibodies coated Acceptor Beads using the EnVision Multilabel Plate Reader after an overnight incubation at room temperature.
# T1 sequence (P04629 442-796): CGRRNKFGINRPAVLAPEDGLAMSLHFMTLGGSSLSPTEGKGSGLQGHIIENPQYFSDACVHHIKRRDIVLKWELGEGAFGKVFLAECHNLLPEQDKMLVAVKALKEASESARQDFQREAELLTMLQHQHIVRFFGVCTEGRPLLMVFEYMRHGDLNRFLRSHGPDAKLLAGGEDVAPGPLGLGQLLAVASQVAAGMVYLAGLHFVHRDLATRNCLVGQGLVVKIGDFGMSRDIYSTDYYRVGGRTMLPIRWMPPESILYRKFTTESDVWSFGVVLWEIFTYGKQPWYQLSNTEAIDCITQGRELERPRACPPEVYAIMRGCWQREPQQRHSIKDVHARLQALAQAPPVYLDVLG
row,IC50 [µM],Compound
1,0.015,"Fc1ccc(CNc2ccc3ncn(-c4cc(C5CC5)[nH]n4)c3c2)cc1 [Example 29, N-(4-Fluorobenzyl)-3-(5-cyclopropyl-1H-pyrazol-3-yl)-3H-benzo[d]imidazol-5-amine]"
2,0.022,"Fc1ccc(CNc2ccc3ncn(-c4cc(C5CC5)[nH]n4)c3n2)cc1 [Example 14, N-(4-Fluorobenzyl)-3-(5-cyclopropyl-1H-pyrazol-3-yl)-3H-imidazo[4,5-b]pyridin-5-amine]"
3,0.02,"Fc1ccc(CNc2ncc3ncn(-c4cc(C5CC5)[nH]n4)c3n2)cc1 [Example 4, 9-(5-Cyclopropyl-1H-pyrazol-3-yl)-N-(4-fluorobenzyl)-9H-purin-2-amine]"

# From patent US8129403B2, “Chemical compounds” (AstraZeneca AB, priority 2005, dated 2012)
